# Assay results as given in patent publication US20050112199A1, “Therapeutic regimens for administering drug combinations” (priority 2003, published 2005).
# Read-outs that look alike come from different tables or passages of the source.
# Key:
# [1] = monotherapy, cited from earlier work
# [2] = PK study of amoxapine and prednisolone administered orally to humans; conditions: amoxapine/prednisolone combination PK study, oral
# [3] = PK study of paroxetine and prednisolone administered orally to humans; format: in vivo, human; conditions: paroxetine/prednisolone combination PK study, oral
structure (smiles),measurement,setting,value
"OCCN(CCO)c1nc(N2CCCCC2)c2nc(N(CCO)CCO)nc(N3CCCCC3)c2n1 [Dipyridamole, 2,6-bis(diethanolamino)-4,8-dipiperidinopyrimido(5,4-d)pyrimidine]",Mean Tmax,"[1]; oral, 25 mg",0.75 h
same,Mean elimination half life,"[1]; oral, 25 mg",10 h
C[C@]12C=CC(=O)C=C1CC[C@@H]1[C@@H]2[C@@H](O)C[C@@]2(C)[C@H]1CC[C@]2(O)C(=O)CO [Prednisolone],Mean Tmax,[2]; 3 mg,1.9 h
same,Mean elimination half life,[2]; 3 mg,4.5 h
same,Mean Tmax,"[1]; oral, 3 mg",1.9 h
same,Mean elimination half life,"[1]; oral, 3 mg",2.7 h
same,Mean Tmax,[3]; 3 mg,1.9 h
same,Mean elimination half life,[3]; 3 mg,2.7 h
CNCCC=C1c2ccccc2CCc2ccccc21 [Nortriptyline],Mean Tmax,"[1]; oral, 25 mg",8 h
same,Mean elimination half life,"[1]; oral, 25 mg",16 h
Fc1ccc([C@@H]2CCNC[C@H]2COc2ccc3c(c2)OCO3)cc1 [Paroxetine],Mean Tmax,[3]; 20 mg,7 h
same,Mean elimination half life,[3]; 20 mg,20.2 h
CCCC1O[C@@H]2C[C@H]3[C@@H]4CCC5=CC(=O)C=C[C@]5(C)[C@H]4[C@@H](O)C[C@]3(C)[C@]2(C(=O)CO)O1 (stereo partly shown) [Budesonide],Mean Tmax,"[1]; inhaled, 200 μg",0.5 h
same,Mean elimination half life (Hours),"[1]; inhaled, 200 μg",ca. 2 Hours
Clc1ccc2c(c1)C(N1CCNCC1)=Nc1ccccc1O2 [Amoxapine],Mean Tmax,[2]; 100 mg,2.4 h
same,Mean elimination half life,[2]; 100 mg,9.7 h
